# Assay results from ChEMBL document CHEMBL1153245, “A profile of the in vitro anti-tumor activity of imidazolium-based ionic liquids” (2010).
# Columns and labels:
# Format in all cases: functional
# HCC 2998 = assay: Anticancer activity against human HCC2998 cells after 48 hrs by sulforhodamine B assay
# OVCAR-5 = assay: Anticancer activity against human OVCAR5 cells after 48 hrs by sulforhodamine B assay
# MCF7 = assay: Anticancer activity against human MCF7 cells after 48 hrs by sulforhodamine B assay
# OVCAR-8 = assay: Anticancer activity against human OVCAR8 cells after 48 hrs by sulforhodamine B assay
# COLO 205 = assay: Anticancer activity against human COLO205 cells after 48 hrs by sulforhodamine B assay
# T47D = assay: Anticancer activity against human T47D cells after 48 hrs by sulforhodamine B assay
# HCT-116 = assay: Anticancer activity against human HCT116 cells after 48 hrs by sulforhodamine B assay
# SR = assay: Anticancer activity against human SR cells after 48 hrs by sulforhodamine B assay
# U-251 = assay: Anticancer activity against human U251 cells after 48 hrs by sulforhodamine B assay
# SF-268 = assay: Anticancer activity against human SF268 cells after 48 hrs by sulforhodamine B assay
# NCI-H226 = assay: Anticancer activity against human NCI-H226 cells after 48 hrs by sulforhodamine B assay
# SF-295 = assay: Anticancer activity against human SF295 cells after 48 hrs by sulforhodamine B assay
# HT-29 = assay: Anticancer activity against human HT-29 cells after 48 hrs by sulforhodamine B assay
# SNB-75 = assay: Anticancer activity against human SNB75 cells after 48 hrs by sulforhodamine B assay
# A549 = assay: Anticancer activity against human A549 cells after 48 hrs by sulforhodamine B assay
# CAKI-1 = assay: Anticancer activity against human Caki1 cells after 48 hrs by sulforhodamine B assay
# CCRF-CEM = assay: Anticancer activity against human CCRF-CEM cells after 48 hrs by sulforhodamine B assay
# NCI-H23 = assay: Anticancer activity against human NCI-H23 cells after 48 hrs by sulforhodamine B assay
# IGROV-1 = assay: Anticancer activity against human IGROV1 cells after 48 hrs by sulforhodamine B assay; settings: IGROV-1, 48 h
# NCI-H460 = assay: Anticancer activity against human NCI-H460 cells after 48 hrs by sulforhodamine B assay
# MDA-MB-231 = assay: Anticancer activity against human MDA-MB-231 cells after 48 hrs by sulforhodamine B assay
# TK-10 = assay: Anticancer activity against human TK10 cells after 48 hrs by sulforhodamine B assay
# UACC-62 = assay: Anticancer activity against human UACC62 cells after 48 hrs by sulforhodamine B assay
# MOLT-4 = assay: Anticancer activity against human MOLT4 cells after 48 hrs by sulforhodamine B assay
# SF-539 = assay: Anticancer activity against human SF539 cells after 48 hrs by sulforhodamine B assay
# SW-620 = assay: Anticancer activity against human SW620 cells after 48 hrs by sulforhodamine B assay
# OVCAR-3 = assay: Anticancer activity against human OVCAR-3 cells after 48 hrs by sulforhodamine B assay
# MDA-MB-468 = assay: Anticancer activity against human MDA-MB-468 cells after 48 hrs by sulforhodamine B assay
# KM12 = assay: Anticancer activity against human KM12 cells after 48 hrs by sulforhodamine B assay
# Malme-3M = assay: Anticancer activity against human MALME-3M cells after 48 hrs by sulforhodamine B assay
# PC-3 = assay: Anticancer activity against human PC3 cells after 48 hrs by sulforhodamine B assay
# SN12C = assay: Anticancer activity against human SN12C cells after 48 hrs by sulforhodamine B assay
# [1] = read-out: LC50 (the source's name)
smiles,measurement,setting,value
CCCCCCCCCCCC[n+]1ccn(C)c1.F[B-](F)(F)F,GI50,HCC 2998,4.18 µM
same,GI50,OVCAR-5,7.49 µM
same,GI50,MCF7,1.95 µM
same,GI50,OVCAR-8,3.25 µM
same,GI50,COLO 205,3.41 µM
same,GI50,T47D,4.31 µM
same,GI50,HCT-116,2.36 µM
same,GI50,SR,1.06 µM
same,CC50,SR; [1],> 100 µM
same,GI50,U-251,2.81 µM
same,GI50,SF-268,5.98 µM
same,GI50,NCI-H226,4.62 µM
same,GI50,SF-295,2.93 µM
same,GI50,HT-29,2.19 µM
same,GI50,SNB-75,3.71 µM
same,CC50,SNB-75; [1],90.3 µM
same,GI50,A549,7.14 µM
same,GI50,CAKI-1,2.99 µM
same,GI50,CCRF-CEM,1.62 µM
same,GI50,NCI-H23,2.44 µM
same,GI50,IGROV-1,0.533 µM
same,CC50,IGROV-1; [1],> 100 µM
same,GI50,NCI-H460,4.29 µM
same,GI50,MDA-MB-231,4.68 µM
same,CC50,MDA-MB-231; [1],64.2 µM
same,GI50,TK-10,2.04 µM
same,GI50,UACC-62,4.25 µM
same,GI50,MOLT-4,2.58 µM
same,GI50,SF-539,2.88 µM
same,GI50,SW-620,7.25 µM
same,GI50,OVCAR-3,3.33 µM
same,GI50,MDA-MB-468,0.556 µM
same,GI50,KM12,1.85 µM
same,CC50,KM12; [1],23 µM
same,GI50,Malme-3M,5.06 µM
same,GI50,PC-3,2.08 µM
same,GI50,SN12C,3.35 µM
